According to patent US20240142474A1, “Opsins as Chemosensory Receptors and Related Methods” (The Regents of the University of California, priority 2021, published 2024):
“Also recorded” adds a separate entry of the source.

Tests used:
OPN3 [1] = biological target: T1, OPN3 (Mus musculus, UniProt Q9WUK7); assay: TANGO assay (beta-arrestin recruitment, luciferase reporter) in HTLA cells, OPN3; format: cell-based; conditions: 4 hours
T1 construct: expressed in transfected cells; host or cells: HTLA cells (HEK293 line with tTA-dependent luciferase reporter and beta-arrestin2-TEV fusion)
T1 sequence (Q9WUK7 whole entry, the tested form may be a part): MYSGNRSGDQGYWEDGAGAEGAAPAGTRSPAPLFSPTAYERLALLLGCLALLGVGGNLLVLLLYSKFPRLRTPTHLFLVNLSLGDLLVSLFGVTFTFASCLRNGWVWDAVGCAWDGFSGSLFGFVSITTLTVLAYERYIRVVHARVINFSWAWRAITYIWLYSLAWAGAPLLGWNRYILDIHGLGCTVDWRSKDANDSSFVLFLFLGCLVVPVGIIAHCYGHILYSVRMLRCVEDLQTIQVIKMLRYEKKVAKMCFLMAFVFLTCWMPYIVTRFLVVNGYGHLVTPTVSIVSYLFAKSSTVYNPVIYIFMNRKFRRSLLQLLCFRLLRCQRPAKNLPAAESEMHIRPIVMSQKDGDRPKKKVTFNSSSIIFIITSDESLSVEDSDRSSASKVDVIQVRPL
Source text: (§1) For example, in one implementation the chemosensory opsin activation detection element comprises a TANGO assay (Transcriptional Activation Following Arrestin Translocation), as known in the art, for example, as described by Kroeze et al., 2015. PRESTO-Tango as an open-source resource for interrogation the druggable human GPCRome. Nat Struct Mol Biol 22, 362-369. In the TANGO systems of the invention, a cell is engineered to express a chemosensory opsin in the form of a fusion protein, wherein the opsin fusion protein comprises an optional membrane trafficking signal (e.g. HA), an optional FLAG tag or like epitope to facilitate detection, and a transcriptional activator which induces the expression of a reporter gene, such as luciferase, wherein the transcriptional activator is joined to an intracellular portion of the opsin, for example, the […], by a cleavage sequence. The cells of the TANGO system are further engineered to express a second fusion protein comprising a beta-arrestin fused to a protease, for example, a TEV protease, wherein the protease is capable of cleaving the fusion protein at the cleavage site. The cells of the TANGO system are further engineered to express a reporter protein, e.g. luciferase, under the control of a transcriptional activator, for example, tetracycline-controlled transactivaor (tTA). Ligand binding to the opsin deployed in the TANGO system triggers a conformational change in the opsin that recruits the beta arrestin-protease fusion protein to the opsin, where proximity of the protease induces cleavage of the transcriptional activator, which trafficks to the nucleus and induces the expression of the reporter gene. The TANGO system advantageously allows direct quantification of opsin activation, independent of g protein activity.
(§2) Human transcriptomics data was mined to identify putative taste receptor proteins. […] However, the role of these opsins in taste perception has not been previously explored. TANGO detection elements employing each of these opsins, in both human and mouse isoforms, were created in HTLA cells (a HEK293 cell line stably expressing a tTA-dependent luciferase reporter and a β-arrestin2-TEV fusion gene), based on protocols in Kroeze et al., 2015. PRESTO-Tango as an open-source resource for interrogation of the druggable human GPCRome. Nat Struct Mol Biol 22, 362-369.
(§3) In the TANGO assay, the mouse opsin coding sequence with an N-terminal FLAG tag was synthesized. The construct was cloned into a TANGO vector (Addgene, Waterton MA) at the ClaI site (FLAG::opsin). The HTLA cells were transfected in a 6-well format with LIPOFECTAMINE 2000™ (Thermo Fisher Scientific, Inc, Waltham MA, USA) according to the manufacturer's instructions. 6-8 hours post transfection cells weret split 1:3 and the media was switched to DMEM+ 2.5% fetal bovine serum (Thermo Fisher Scientific Inc., Waltham MA, USA). Cells were allowed to grow for 48 hours before splitting the cells onto poly-L-lysine-coated 96-well clear, flat bottom white polystyrene plates in serum-free media. The next day, chemical solutions diluted in TANGO assay buffer (20 mM HEPES, 1× HBSS, pH 7.40) were added to the cells. After 4 hours, the medium and drug solutions were removed and replaced with […] per well of BRIGHTGLO™ reagent (Promega Corporation, Madison WI) diluted 20-fold with TANGO assay buffer. Plates were incubated for 20 minutes at room temperature in the dark before measuring luminescence with a plate reader (Molecular Devices, iD3). The normalized response was calculated using following formula: RLU (relative luminescence units)=test compound RLU−average vehicle control RLU.

OPN3 [2] = biological target: T2, OPN3 (Homo sapiens, UniProt Q9H1Y3); assay: Calcium flux GPCR activation assay with Fluo-8 dye, opsin-expressing HEK293T cells, OPN3; format: cell-based; conditions: Fluo-8 calcium flux, data not shown
T2 construct: expressed in transfected cells; host or cells: HEK293T
T2 sequence (Q9H1Y3 whole entry): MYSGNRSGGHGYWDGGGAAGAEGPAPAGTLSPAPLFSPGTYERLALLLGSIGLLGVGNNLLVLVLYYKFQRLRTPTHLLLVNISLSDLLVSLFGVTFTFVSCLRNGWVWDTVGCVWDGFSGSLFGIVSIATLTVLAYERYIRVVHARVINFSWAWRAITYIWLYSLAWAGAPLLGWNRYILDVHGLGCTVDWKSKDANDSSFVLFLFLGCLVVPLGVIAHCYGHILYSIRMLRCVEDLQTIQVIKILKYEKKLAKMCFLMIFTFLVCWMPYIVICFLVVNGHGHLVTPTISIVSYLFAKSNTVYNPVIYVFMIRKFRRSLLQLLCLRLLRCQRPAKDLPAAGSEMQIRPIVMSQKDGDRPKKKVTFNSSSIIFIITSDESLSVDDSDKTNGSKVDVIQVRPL
Experimental: (§4) These foregoing TANTO results were further confirmed using a second, a calcium flux GPCR activation assay employing Fluo-8 dye, as follows. For this intracellular Ca^2+ measurement, opsin-expressing HEK293T cells were seeded onto 96-well plates (4×10^4 cells per well) in 100 μl of culture medium with reduced serum contents (0.5% of FBS) per well and incubated overnight under standard culture conditions. [Ca2+]i level was assessed the next day after stimulation with bitter compounds used at a different concentration with the SCREEN QUEST Fluo-8 No Wash Calcium Assay Kit (AAT Bioquest, Inc., Sunnyvale, CA, USA) according to the supplier's protocol. Calcium flux was monitored simultaneously by the change in fluorescence (Ex/Em=490/520 nm) following stimulation and with respect to the background fluorescence. [Ca^2+]i was monitored for a period of three minutes, starting before the addition of compounds to the wells and continuing during measurement of the fluorescent signal following cells' stimulation. The obtained fluorescence reads were normalized to the results obtained after stimulation of the cells with the compound solvent.

OPN3 knockout mice = assay: Mouse brief-access taste assay (lickometer), OPN3 knockout mice compared to wild type; format: in vivo; conditions: water restricted
Experimental: Knockout mice were obtained for OPN1SW and OPN3. Two independent OPN3 knockout mice lines were tested for reaction to naringin by a mouse taste preference assay. A Lickometer device (MS-160, Di Log Instruments, Inc.,Tallahassee, FL, USA) was used to train mice and then measure their licking responses to different tastants in brief-access trials. On a given trial, each sipper tube was filled with a solution and made available to a mouse via a small port that opened to a metal/plexiglass chamber housing the animal. The mouse chamber of the lickometer was modified for these studies by adding a plexiglass barrier that restricted the free movement of animals to an approximate 10 by 15 cm area facing the fluid access port. A computer running software that communicated with the lickometer recorded tongue contacts with the metal tip of the sipper tube during licking and the time intervals (precision=1 ms) between consecutive licks (inter-lick intervals). The amount of time that the sipper tube was available through the access port could be programmed and was controlled by the opening of a normally closed, computer-actuated shutter. This feature facilitated presentation of solutions to a mouse for only a few seconds to support measurements of brief-access licking behavior. By indexing initial licking responses to stimuli over short periods, brief-access procedures intend to focus on oral sensory influences and avoid any post-ingestive effect. Groups of three to four mice were run in these studies at one time. Groups always included equal numbers of mutant and wild-type mice to control for temporal factors.
Training. Mice were restricted from drinking water for 20-22 hours prior to the onset of training. During training, experimentally naive mice learned to receive fluid in the lickometer over a 3-day period. On the first and second day of training, mice were given 30 minutes free access to a single sipper tube of water to familiarize them with accessing fluid in the lickometer device. Each 30 minute period began when the mouse made its first lick on the sipper tube; mice were allowed 30 minutes to make their first lick. On the third day of training, mice were presented with 10 second presentations (i.e., trials) of water to familiarize them with receiving and consuming fluid under a brief-access procedure in the lickometer. On each trial, the shutter that blocked access to the sipper tube was opened and mice were given 10 seconds to lick, and lick data were recorded by the lickometer computer. […]
Testing. […] For studies, individual Opn3KO, Opn1swKO, Opn4KO, Opn5KO and wild-type mice were evaluated for brief-access licking responses with different agonists. […]

TRPM5 knockout mice = assay: Mouse brief-access taste assay (lickometer), TRPM5 knockout mice compared to wild type; format: in vivo; conditions: TRPM5 knockout (taste blind) mice, water restricted
OPN1SW [3] = biological target: T3, OPN1SW (Mus musculus, UniProt P51491); assay: TANGO assay (beta-arrestin recruitment, luciferase reporter) in HTLA cells, OPN1SW; format: cell-based; conditions: 4 hours
T3 construct: expressed in transfected cells; host or cells: HTLA cells (HEK293 line with tTA-dependent luciferase reporter and beta-arrestin2-TEV fusion)
T3 sequence (P51491 1-346): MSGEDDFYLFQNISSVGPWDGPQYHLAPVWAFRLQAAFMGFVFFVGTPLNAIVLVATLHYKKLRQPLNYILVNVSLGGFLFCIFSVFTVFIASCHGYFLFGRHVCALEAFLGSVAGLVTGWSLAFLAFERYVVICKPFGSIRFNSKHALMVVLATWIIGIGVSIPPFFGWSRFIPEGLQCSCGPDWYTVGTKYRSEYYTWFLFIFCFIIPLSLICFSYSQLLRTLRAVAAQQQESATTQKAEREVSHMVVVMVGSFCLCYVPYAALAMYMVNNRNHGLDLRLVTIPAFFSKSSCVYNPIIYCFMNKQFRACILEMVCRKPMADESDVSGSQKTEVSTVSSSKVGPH
Source text: as §1, §2, §3

OPN1SW [4] = biological target: T4, OPN1SW (Homo sapiens, UniProt P03999); assay: Calcium flux GPCR activation assay with Fluo-8 dye, opsin-expressing HEK293T cells, OPN1SW; format: cell-based; conditions: Fluo-8 calcium flux, data not shown
T4 construct: expressed in transfected cells; host or cells: HEK293T
T4 sequence (P03999 1-345): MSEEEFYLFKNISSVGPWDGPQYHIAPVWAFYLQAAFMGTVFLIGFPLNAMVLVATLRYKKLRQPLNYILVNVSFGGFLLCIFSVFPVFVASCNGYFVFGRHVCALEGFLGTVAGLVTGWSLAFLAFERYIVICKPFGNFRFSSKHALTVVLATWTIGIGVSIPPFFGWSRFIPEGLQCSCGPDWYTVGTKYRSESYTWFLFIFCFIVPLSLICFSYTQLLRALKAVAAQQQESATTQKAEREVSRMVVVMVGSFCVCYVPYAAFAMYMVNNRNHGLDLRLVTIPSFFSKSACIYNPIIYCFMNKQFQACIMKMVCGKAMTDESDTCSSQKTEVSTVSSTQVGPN
Experimental: as §4

SMILES	activation of OPN3, fold-change from baseline luciferase signal vs. log concentration of tastant (OPN3 [1])	activation of calcium dye OPN3 detection elements (OPN3 [2])	aversion to the bitter flavor (lick ratio), OPN3 knockout mice compared to wild type mice (OPN3 knockout mice)	aversive response to the bitter flavor (lick ratio), TRPM5 knockout mice (TRPM5 knockout mice)	activation of OPN1SW, fold-change from baseline luciferase signal vs. log concentration of tastant (OPN1SW [3])	activation of calcium dye OPN1SW detection elements (OPN1SW [4])
C[C@@H]1O[C@@H](O[C@H]2[C@H](Oc3cc(O)c4c(c3)O[C@H](c3ccc(O)cc3)CC4=O)O[C@H](CO)[C@@H](O)[C@@H]2O)[C@H](O)[C@H](O)[C@H]1O [naringin]	activation of OPN3; also recorded: activated; also recorded: potent activator of OPN3	significantly activated in a concentration dependent manner	reduced aversion	lost the aversive response	–	–
Cn1cnc2c1c(=O)[nH]c(=O)n2C [theobromine]	–	–	–	–	activated; also recorded: activation of OPN1SW	significantly activated in a concentration dependent manner
Cn1c(=O)c2[nH]cnc2n(C)c1=O [theophylline]	–	–	–	–	activation of OPN1SW; also recorded: activated	significantly activated in a concentration dependent manner
